Here are results for 33 molecules from US5043328A, “Formulations containing unsaturated fatty acids for the synthesis of prostaglandins and hydroxy-fatty acids in biological systems” (priority 1986, dated 1991).

For this series, the target named is T1, enzyme (from seminal vesicles of sheep) (Ovis aries, UniProt P05979).
T1 sequence (P05979 25-600): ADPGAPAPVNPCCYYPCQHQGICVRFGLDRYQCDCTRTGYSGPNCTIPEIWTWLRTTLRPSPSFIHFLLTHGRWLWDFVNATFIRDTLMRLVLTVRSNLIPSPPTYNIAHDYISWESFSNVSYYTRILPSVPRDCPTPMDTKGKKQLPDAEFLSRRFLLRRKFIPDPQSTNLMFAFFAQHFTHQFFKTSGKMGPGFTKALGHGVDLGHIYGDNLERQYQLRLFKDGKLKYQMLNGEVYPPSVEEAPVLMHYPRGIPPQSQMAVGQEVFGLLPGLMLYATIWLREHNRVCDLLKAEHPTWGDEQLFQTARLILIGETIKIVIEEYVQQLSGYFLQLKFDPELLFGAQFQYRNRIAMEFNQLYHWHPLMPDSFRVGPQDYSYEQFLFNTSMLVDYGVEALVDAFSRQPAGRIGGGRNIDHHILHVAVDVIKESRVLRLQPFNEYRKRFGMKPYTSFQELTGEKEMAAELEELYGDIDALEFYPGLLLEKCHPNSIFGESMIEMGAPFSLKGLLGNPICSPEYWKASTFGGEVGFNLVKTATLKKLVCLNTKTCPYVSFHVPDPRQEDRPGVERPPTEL
The conditions noted are these: for stimulation of prostaglandin synthesis with much smaller quantities of undesired byproducts: mixtures with polyunsaturated fatty acids such as arachidonic acid. Here is the method:
Method 2: Prostaglandin Synthesis
0.3 ml of 0.03M potassium phosphate buffer of pH=8.0 contains 0.5 mg of enzyme (from seminal vesicles of sheep) (Biochemistry 10 (1971) 2372) or homogenate of the inner kidney medulla (Life Sciences 26 (1980) 765), 2.75 μg of ^14 C-arachidonic acid (0.5 μCi) and 0.5 mg of stimulator, and, if appropriate, 0.5 mg of stabilizer substance (see Table 1). After 10 minutes' incubation at 37° C., the reaction is stopped with 0.05 ml of 1.2M citric acid and the mixture is extracted with twice 0.5 ml of ethyl acetate, the combined extracts are freed of solvent, and the residue is dissolved in 0.2 ml of methanol, diluted 1:1 with water and separated by HPLC (nucleosil C-18 column, 125×4.6 mm, from Bischoff, Leonberg, Germany, solvent 300 ml of acetonitrile, 700 ml of water and 1 ml of glacial acetic acid and after 30 minutes pure methanol). The separation of the radioactive fractions is followed by a monitor (LB 504 from Berthold, Wildbad, Germany). The products formed, such as 6-keto-prostaglandin F2alpha, prostaglandin E2, prostaglandin F2alpha and prostaglandin D2, are separated under these conditions.
The prostaglandins PGE2, PGF2 alpha and PGD2 as products from arachidonic acid where quantified by means of method 2, and the sum was related as "total prostaglandin" to 100%. The quantity of "total prostaglandin" formed without the addition of a stimulator was set at f=1; the quantity formed after stimulation was related thereto. f=2 or f=3 therefore means twice or three times the stimulation under the conditions of method 2. The stability of the sample was investigated by means of method 1 (right-hand column). […] Values greater than 25-28% therefore represent a stabilization, and values smaller than 25-28% represent a destabilization. Example No. 1 was carried out without a stimulator. […] The substances test with respect to stabilization (see Method 1 for quantities) were: A) aqueous solution without stabilizer addition, B) ethanolic solution without further addition, C) pyridine solution, D) with rutin, predissolved in dimethyl sulfoxide, dimethyl sulfoxide then stripped off, E) like B) with lecithin, ethanol stripped off, F) like A) with cytochrome c from horse heart (from Boehringer, Mannheim, Germany), G) like A) with methemoglobin (human) (from Sigman, Munich, Germany), H) like A) with bovine serum albumin (from Calbiochem, Frankfurt, Germany), J) like A) or B), but solvent stripped off, K) like J) with cytochrome c, L) like J) with hemoglobin (human) (from Behringwerke, Marburg, Germany), and M) like J) with human serum albumin (from Behringwerke, Marburg, Germany).

Where [1] appears, read: Table 2, share of total prostaglandin.
The mark [2] stands for this setting: seminal vesicle enzyme, 10 min, pH 8.
Where [3] appears, read: Table 1, 0.5 mg stimulator, 10 min 37° C., without stimulator f=1.
The mark [4] stands for this setting: Table 1, share of total prostaglandin (=100%).

Like-named read-outs stand apart in the source and are kept apart here. No end group written: not given here.

For the molecule `O=c1c(O)c(-c2ccc(O)c(O)c2)oc2cc(O)cc(O)c12` [Example 57, Quercetin], under setting [1], the PGD2 % is listed as 10%, the PGE2 % amounted to 72% and the PGF2alpha % stood at 18%. Under setting [2], the “relative total prostaglandin f” value is 0.3.

Turning to LeuTrpMet [Example 29], the “relative total prostaglandin f” value under setting [3] is on record as 10.8. Under setting [4], this molecule came in with a PGD2 % of 22%, a PGE2 % of 69% and a PGF2alpha % of 9%.

For `N[C@@H](CCS)C(=O)O` [homocysteine], the “stimulation of prostaglandin synthesis with much smaller quantities of undesired byproducts” value (“stimulation of prostaglandin synthesis” for short) (result in words) is “stimulated”.

As to YCEHFRWG [Example 38], the Stimulation entry (Table 1, result in words) was “positive”.

Under setting [4], `N[C@@H](Cc1ccccc1)C(=O)O` [Example 4, L-phenylalanine, reference compound] showed a PGD2 % of 18%, a PGE2 % of 80% and a PGF2alpha % of 2%.

GlyTrpGly [Example 25]: the “relative total prostaglandin f” value under setting [3] is on record as 13.0. Under setting [4], this molecule displayed a PGD2 % of 20%, a PGE2 % of 79% and a PGF2alpha % of 1%.

For the molecule `O=C(O)c1ccc(O)cc1` [Example 16], under setting [4], the PGD2 % came out at 18%, the PGE2 % is 69% and the PGF2alpha % turned out to be 13%.

`CC(C)(CO)[C@@H](O)C(=O)NCCC(=O)NCCS` [Example 46, Pantetheine, reference compound]: the “stimulation of prostaglandin synthesis” value (result in words) is given as “not possible to achieve these advantageous effects”. Besides, the “relative total prostaglandin f” value under setting [2] amounted to 0.95.

For the molecule `COc1cc(C(=O)O)ccc1O` [Example 15], under setting [4], the PGD2 % amounted to 17%, the PGE2 % is recorded as 71% and the PGF2alpha % is 12%.

As for `NCCS` [Example 43, Cysteamine, reference compound], under “result in words”, the “stimulation of prostaglandin synthesis” value was “not possible to achieve these advantageous effects”. Also, under setting [2], the “relative total prostaglandin f” value came out at 0.9.

Under setting [1], `CC1=C(C)C(=O)C(CC[C@](C)(O)CCC[C@H](C)CCC[C@H](C)CCCC(C)C)=C(C)C1=O` [Example 51, D-alpha-Tocopheryl-quinone] displayed a PGD2 % of 15%, a PGE2 % of 80% and a PGF2alpha % of 5%.

With `Oc1ccc(O)cc1` [Example 14], under setting [4], the PGD2 % was found to be 19%, the PGE2 % came out at 69% and the PGF2alpha % came out at 12%.

On to TrpAla [Example 26], for which the “relative total prostaglandin f” value under setting [3] is listed as 12.6. Under setting [4], this molecule showed a PGD2 % of 22%, a PGE2 % of 77% and a PGF2alpha % of 1%.

Under setting [4], `N[C@H](CS)C(=O)O` [Example 34, D-cysteine] registered a PGD2 % of 23%, a PGE2 % of 63% and a PGF2alpha % of 14%.

As to `N[C@@H](CS)C(=O)O` [cysteine], the “stimulation of prostaglandin synthesis” value (result in words) was “stimulated”.

Turning to `O=C(O)CCc1c[nH]c2ccccc12` [Example 20], under setting [4], the PGD2 % is recorded as 16%, the PGE2 % was found to be 82% and the PGF2alpha % is 2%.

As for TyrTrp [Example 31], under setting [3], the “relative total prostaglandin f” value is recorded as 6.3. Under setting [4], this molecule yielded a PGD2 % of 14%, a PGE2 % of 73% and a PGF2alpha % of 3%.

Under setting [1], `O=c1c(O)c(-c2ccc(O)cc2O)oc2cc(O)cc(O)c12` [Example 61, Morin] returned a PGD2 % of 19%, a PGE2 % of 54% and a PGF2alpha % of 27%.

Under setting [4], `NCCc1ccc(O)cc1` [Example 7] showed a PGD2 % of 17%, a PGE2 % of 80% and a PGF2alpha % of 3%. Moreover, under setting [2], the “relative total prostaglandin f” value is 4,0.

Take `CC(C)(COP(=O)(O)OP(=O)(O)OC[C@H]1O[C@@H](n2cnc3c(N)ncnc32)[C@H](O)[C@@H]1OP(=O)(O)O)[C@@H](O)C(=O)NCCC(=O)NCCS` [Example 45, Coenzyme A, reference compound]: the “stimulation of prostaglandin synthesis” value (result in words) is recorded as “not possible to achieve these advantageous effects”. Moreover, the “relative total prostaglandin f” value under setting [2] stood at 1.0.

For the molecule LeuTrp [Example 27], under setting [3], the “relative total prostaglandin f” value amounted to 17.0. Also, under setting [4], the PGD2 % is reported as 22%, the PGE2 % came to 77% and the PGF2alpha % came out at 1%.

Consider `NC(Cc1ccc(O)c(O)c1)C(=O)O` (stereo not shown) [Example 9], for which, under setting [4], the PGD2 % is 16%, the PGE2 % was 70% and the PGF2alpha % was 14%. Besides, the “relative total prostaglandin f” value under setting [2] is given as 9.4.

For `O[C@H](CS)[C@H](O)CS` [Example 39, Dithiothreitol, reference compound], the “stimulation of prostaglandin synthesis” value (result in words) is “not possible to achieve these advantageous effects”. In addition, under setting [2], the “relative total prostaglandin f” value was determined as 0.8.

`O=C(O)CCCC[C@@H](S)CCS` (racemic) [Example 42, Dihydrolipoic acid, reference compound]: under “result in words”, the “stimulation of prostaglandin synthesis” value is “not possible to achieve these advantageous effects”. For the same molecule, the “relative total prostaglandin f” value under setting [2] is 1.0.

Under setting [4], `NC(Cc1c[nH]c2ccccc12)C(=O)O` (stereo not shown) [Example 18] showed a PGD2 % of 21%, a PGE2 % of 76% and a PGF2alpha % of 3%. The “relative total prostaglandin f” value under setting [2] came out at 9.8.

Under setting [4], `NC(Cc1c[nH]c2ccc(O)cc12)C(=O)O` (stereo not shown) [Example 19] returned a PGD2 % of 18%, a PGE2 % of 79% and a PGF2alpha % of 3%. Also, the “relative total prostaglandin f” value under setting [2] came out at 10.1.

Under setting [4], `O=C(O)CCc1ccc(O)cc1` [Example 8] displayed a PGD2 % of 16%, a PGE2 % of 83% and a PGF2alpha % of 1%.

`N[C@@H](CSSC[C@H](N)C(=O)O)C(=O)O` [Example 41, Cystine, reference compound]: under setting [4], the PGD2 % is 15%, the PGE2 % was 85% and the PGF2alpha % is on record as 0%. In addition, the “stimulation of prostaglandin synthesis” value (result in words) is on record as “not possible to achieve these advantageous effects”. In addition, the “relative total prostaglandin f” value under setting [2] is listed as 1.0.

As for `O=C(CCc1ccc(O)cc1)c1c(O)cc(O)cc1O` [Example 60, Phloretin], under setting [1], the PGD2 % is reported as 13%, the PGE2 % was 76% and the PGF2alpha % stood at 11%.

Under setting [4], `Oc1ccccc1` [Example 3, phenol, reference compound] registered a PGD2 % of 18%, a PGE2 % of 77% and a PGF2alpha % of 5%.

Under setting [4], `NCC(O)c1ccc(O)c(O)c1` (stereo not shown) [Example 12] came in with a PGD2 % of 17%, a PGE2 % of 66% and a PGF2alpha % of 17%. Under setting [2], the “relative total prostaglandin f” value was found to be 8.3.

Under setting [4], `CNCC(O)c1ccc(O)c(O)c1` (stereo not shown) [Example 13] returned a PGD2 % of 18%, a PGE2 % of 70% and a PGF2alpha % of 12%.

For `O[C@H](CS)[C@@H](O)CS` [Example 40, Dithioerythritol, reference compound], the “stimulation of prostaglandin synthesis” value (result in words) is “not possible to achieve these advantageous effects”. Further, under setting [2], the “relative total prostaglandin f” value is reported as 0.85.
